Structures are written as SMILES.

In this experiment the target is Bromodomain-containing protein 4 (Homo sapiens, UniProt O60885). The experiment is described as follows: Inhibition of GST-tagged BRD4-BD1 (49 to 170 residues) (unknown origin) using Histone H4 peptide as substrate incubated for 1.5 hrs by FRET assay.
With `CN1C[C@@H](c2ccccc2)CC1=O`, inhibition was half-maximal at 629 µM (IC50). Consider `CN1CC(c2ccc(S(=O)(=O)N3CCCCC3)cc2)CC1=O` (stereo not given), for which 144 µM corresponded to half-maximal inhibition (IC50). For `CCNS(=O)(=O)c1ccc(C2CC(=O)N(C)C2)cc1` (stereo not given) the value was 250 µM; for `CCN(CC)S(=O)(=O)c1ccc(C2CC(=O)N(C)C2)c(-c2csc3ccccc23)c1` (stereo not given), 2670 µM. The figure for `CN1CC(c2ccc(S(=O)(=O)N3CCC[C@@H](C(=O)O)C3)cc2)CC1=O` (stereo not given in full) is 1680 µM; for `CCCNS(=O)(=O)c1ccc(C2CC(=O)N(C)C2)cc1` (stereo not given) it is 147 µM. For `CN1CC(c2ccccc2)CC1=O` (stereo not given), half-maximal inhibition (IC50) was put at 1140 µM. Take `CCN(CC)S(=O)(=O)c1ccc(C2CC(=O)N(C)C2)c(-c2ccc(N(C)C)cc2)c1` (stereo not given): the IC50 worked out at 217 µM. In turn, `CN1CC(c2ccc(S(=O)(=O)N3CCC(c4ccccc4)CC3)cc2)CC1=O` (stereo not given) had an IC50 of 473 µM.

`CCN(CC)S(=O)(=O)c1ccc([C@H]2CC(=O)N(C)C2)c(-c2ccc(OC)c(OC)c2)c1` yielded an IC50 of 14.1 µM. For the compound `CN1CC(c2ccccc2Br)CC1=O` (stereo not given), the IC50 was 321 µM. Compound `CN1CC(c2ccc(S(=O)(=O)NCCCn3ccnc3)cc2)CC1=O` (stereo not given) showed an IC50 of 1390 µM. The figure for `CCN(CC)S(=O)(=O)c1ccc(C2CC(=O)N(C)C2)c(CCc2ccccc2)c1` (stereo not given) is 4500 µM; for `CCN(CC)S(=O)(=O)c1ccc([C@@H]2CC(=O)N(C)C2)c(-c2ccc(OC)c(OC)c2)c1` it is 35.2 µM. For `CN1CC(c2ccc(S(=O)(=O)N3CCCc4ccccc43)cc2)CC1=O` (stereo not given) the value was 450 µM.

With `CCN(CC)S(=O)(=O)c1ccc(C2CC(=O)N(C)C2)c(-c2ccccc2)c1` (stereo not given), the IC50 came out at 3200 µM. The figure for `CN1CC(c2ccc(S(=O)(=O)N3CCOCC3)cc2)CC1=O` (stereo not given) is 276 µM; for `CN1CC(c2ccccc2-c2ccccc2)CC1=O` (stereo not given) it is 575 µM. For `CN1C[C@H](c2ccccc2)CC1=O` the value was 1430 µM; for `CN1CC(c2ccc(S(=O)(=O)NC34CC5CC(CC(C5)C3)C4)cc2)CC1=O` (stereo not given), 151 µM. `CCN(CC)S(=O)(=O)c1ccc(C2CC(=O)N(C)C2)c(-c2ccc(OC)c(OC)c2)c1` (stereo not given): the half-inhibitory concentration (IC50) was 51.6 µM. `CCN(CC)S(=O)(=O)c1ccc(C2CC(=O)N(C)C2)c(Br)c1` (stereo not given) displayed an IC50 of 652 µM. As to `CN1CC(c2ccc(S(=O)(=O)NCc3ccccc3)cc2)CC1=O` (stereo not given), the IC50 worked out at 443 µM.

Regarding `CN1CC(c2ccc(S(=O)(=O)N3C4CCC3CC(=O)C4)cc2)CC1=O` (stereo not given), the half-maximal inhibitory concentration (IC50) stood at 223 µM. With `CN1CC(c2ccc(-c3ccccc3)cc2)CC1=O` (stereo not given), the IC50 turned out to be 434 µM. The figure for `CN1CC(c2ccc(S(=O)(=O)N3CCC[C@H](C(=O)O)C3)cc2)CC1=O` (stereo not given in full) is 1960 µM; for `CCN(CC)S(=O)(=O)c1ccc(C2CC(=O)N(C)C2)cc1` (stereo not given) it is 123 µM.

With `CCN(CC)S(=O)(=O)c1ccc(C2CC(=O)N(C)C2)c(CCCc2ccccc2)c1` (stereo not given), the half-maximal inhibitory concentration (IC50) is above 5000 µM. The figure for `CN1CC(c2ccc(Br)cc2)CC1=O` (stereo not given) is 417 µM; for `CC(C)NS(=O)(=O)c1ccc(C2CC(=O)N(C)C2)cc1` (stereo not given) it is 134 µM.

One may read the IC50 as the midpoint of a concentration-inhibition curve.

The values are drawn from ChEMBL document CHEMBL4680215, “Substituted 1-methyl-4-phenylpyrrolidin-2-ones - Fragment-based design of N-methylpyrrolidone-derived bromodomain inhibitors” (Eur J Med Chem, 2020).
